Experimental data: patent publication US20100267561A1, “HERBICIDAL PYRIDAZINONE DERIVATIVES” (priority 2007, published 2010)
Read-outs that look alike come from different tables or passages of the source.

Key:
Assay in all cases: Test B pre-/postemergence plant response
Type in all cases: in vivo
[1] = tested on: morningglory (Ipomoea coccinea); conditions: for pest or weed control at 31 g/ha / pest or weed control at 62 g/ha: Ipomoea, read-out: Plant response rating, Morningglory; for pest or weed control at 31 g/ha: 31 g ai/ha; for pest or weed control at 62 g/ha: 62 g ai/ha, 100 complete control
Excerpt: (§1) Seeds of plant species selected from blackgrass (Alopecurus myosuroides), downy bromegrass (Bromus tectorum), green foxtail (Setaria viridis), Italian ryegrass (Lolium multiflorum), wheat (Triticum aestivum), wild oat (Avena fatua), catchweed bedstraw (Galium aparine), bermudagrass (Cynodon dactylon), surinam grass (Brachiaria decumbens), cocklebur (Xanthium strumarium), corn (Zea mays), large crabgrass (Digitaria sanguinalis), woolly cupgrass (Eriochloa villosa), giant foxtail (Setaria faberii), goosegrass (Eleusine indica), johnsongrass (Sorghum halepense), kochia (Kochia scoparia), lambsquarters (Chenopodium album), morningglory (Ipomoea coccinea), eastern black (E.B.) nightshade (Solanum ptycanthum), yellow nutsedge (Cyperus esculentus), pigweed (Amaranthus retroflexus), common ragweed (Ambrosia elation), Russian thistle (Salsola iberica), soybean (Glycine max), common (oilseed) sunflower (Helianthus annuus), and velvetleaf (Abutilon theophrasti) were planted and treated preemergence with test chemicals formulated in a non-phytotoxic solvent mixture which included a surfactant.
(§2) At the same time, plants selected from these crop and weed species and also winter barley (Hordeum vulgare), canarygrass (Phalaris minor), chickweed (Stellaria media) and windgrass (Apera spica-venti) were treated with postemergence applications of some of the test chemicals formulated in the same manner. Plants ranged in height from 2 to 18 cm (1- to 4-leaf stage) for postemergence treatments.
(§3) Plant species in the flooded paddy test consisted of rice (Oryza sativa), umbrella sedge (Cyperus difformis), ducksalad (Heteranthera limosa) and barnyardgrass (Echinochloa crus-galli) grown to the 2-leaf stage for testing. At time of treatment, test pots were flooded to 3 cm above the soil surface, treated by application of test compounds directly to the paddy water, and then maintained at that water depth for the duration of the test. Treated plants and controls were maintained in a greenhouse for 13 to 15 days, after which time all species were compared to controls and visually evaluated. Plant response ratings, summarized in Table B, are based on a scale of 0 to 100 where 0 is no effect and 100 is complete control. A dash (-) response means no test result.

[2] = tested on: pigweed (Amaranthus retroflexus); conditions: for pest or weed control at 31 g/ha / pest or weed control at 62 g/ha: Amaranthus retroflexus, read-out: Plant response rating, Pigweed; for pest or weed control at 31 g/ha: 31 g ai/ha; for pest or weed control at 62 g/ha: 62 g ai/ha, 100 complete control
Excerpt: as §1, §2, §3

[3] = tested on: soybean (Glycine max); conditions: for plant injury at 31 g/ha / plant injury at 62 g/ha: Glycine max, read-out: Plant response rating, Soybean; for plant injury at 31 g/ha: 31 g ai/ha; for plant injury at 62 g/ha: 62 g ai/ha, 100 complete control
Excerpt: as §1, §2, §3

[4] = tested on: surinam grass (Brachiaria decumbens); conditions: for pest or weed control at 31 g/ha / pest or weed control at 62 g/ha: Urochloa decumbens, read-out: Plant response rating, Surinam Grass; for pest or weed control at 31 g/ha: 31 g ai/ha; for pest or weed control at 62 g/ha: 62 g ai/ha, 100 complete control
Excerpt: as §1, §2, §3

[5] = tested on: velvetleaf (Abutilon theophrasti); conditions: for pest or weed control at 31 g/ha / pest or weed control at 62 g/ha: Abutilon theophrasti, read-out: Plant response rating, Velvetleaf; for pest or weed control at 31 g/ha: 31 g ai/ha; for pest or weed control at 62 g/ha: 62 g ai/ha, 100 complete control
Excerpt: as §1, §2, §3

[6] = tested on: woolly cupgrass (Eriochloa villosa); conditions: for pest or weed control at 31 g/ha: 31 g ai/ha; for pest or weed control at 62 g/ha: 62 g ai/ha, 100 complete control
Excerpt: as §1, §2, §3

[7] = 8 g ai/ha, postemergence, 0-100 scale
[8] = 16 g ai/ha, postemergence, 0-100 scale
[9] = post-emergence, Postemergence, scale 0 to 100
[10] = post-emergence, Postemergence, scale 0 to 100, 0 no effect
[11] = pre-emergence, Preemergence, scale 0 to 100 (0 no effect, 100 complete control)
[12] = pre-emergence, Preemergence, 0 to 100 scale, 0 no effect
[13] = Preemergence, 8 g ai/ha, scale 0 to 100 (0 no effect, 100 complete control)
[14] = Preemergence, 16 g ai/ha, scale 0 to 100

## Cc1cc(-c2ccc(Br)cc2)nn1-c1c(O)cn[nH]c1=O [Compound 78, 4-[3-(4-bromophenyl)-5-methyl-1H-pyrazol-1-yl]-5-hydroxy-3(2H)-pyridazinone]
[1]; [7]
  Morningglory plant response rating: 0
[1]; [8]
  Morningglory plant response rating: 0
[1]; [9]
  pest or weed control at 31 g/ha: 0%
[1]; [10]
  pest or weed control at 62 g/ha: 0%
[1]; [11]
  pest or weed control at 31 g/ha: 0%
[1]; [12]
  pest or weed control at 62 g/ha: 0%
[1]; [13]
  Morningglory plant response rating: 0
[1]; [14]
  Morningglory plant response rating: 0
[2]; [7]
  Pigweed plant response rating: 0
[2]; [8]
  Pigweed plant response rating: 0
[2]; [9]
  pest or weed control at 31 g/ha: 0%
[2]; [10]
  pest or weed control at 62 g/ha: 0%
[2]; [11]
  pest or weed control at 31 g/ha: 0%
[2]; [12]
  pest or weed control at 62 g/ha: 0%
[2]; [13]
  Pigweed plant response rating: 0
[2]; [14]
  Pigweed plant response rating: 0
[3]; [7]
  Soybean plant response rating: 0
[3]; [8]
  Soybean plant response rating: 15
[3]; [9]
  plant injury at 31 g/ha: 20%
[3]; [10]
  plant injury at 62 g/ha: 25%
[3]; [11]
  plant injury at 31 g/ha: 0%
[3]; [12]
  plant injury at 62 g/ha: 0%
[3]; [13]
  Soybean plant response rating: 0
[3]; [14]
  Soybean plant response rating: 0
[4]; [7]
  Surinam Grass plant response rating: 98
[4]; [8]
  Surinam Grass plant response rating: 100
[4]; [13]
  Surinam Grass plant response rating: 95
[4]; [14]
  Surinam Grass plant response rating: 95
[4]; [9]
  pest or weed control at 31 g/ha: 100%
[4]; [10]
  pest or weed control at 62 g/ha: 100%
[4]; [11]
  pest or weed control at 31 g/ha: 100%
[4]; [12]
  pest or weed control at 62 g/ha: 100%
[5]; [7]
  Velvetleaf plant response rating: 0
[5]; [8]
  Velvetleaf plant response rating: 0
[5]; [9]
  pest or weed control at 31 g/ha: 0%
[5]; [10]
  pest or weed control at 62 g/ha: 0%
[5]; [11]
  pest or weed control at 31 g/ha: 0%
[5]; [12]
  pest or weed control at 62 g/ha: 0%
[5]; [13]
  Velvetleaf plant response rating: 0
[5]; [14]
  Velvetleaf plant response rating: 0
[6]; [7]
  Cupgrass, Woolly plant response rating: 98
[6]; Eriochloa villosa, post-emergence, Postemergence, 16 g ai/ha, scale 0 to 100, read-out: Plant response rating, Cupgrass, Woolly
  pest or weed control at 16 g/ha: 100%
[6]; Eriochloa villosa, post-emergence, Postemergence, scale 0 to 100, read-out: Plant response rating, Cupgrass, Woolly
  pest or weed control at 31 g/ha: 100%
[6]; Eriochloa villosa, post-emergence, Postemergence, scale 0 to 100, 0 no effect, read-out: Plant response rating, Cupgrass, Woolly
  pest or weed control at 62 g/ha: 100%
[6]; Eriochloa villosa, pre-emergence, Preemergence, scale 0 to 100 (0 no effect, 100 complete control), read-out: Plant response rating, Cupgrass, Woolly
  pest or weed control at 31 g/ha: 100%
[6]; Eriochloa villosa, pre-emergence, Preemergence, 0 to 100 scale, 0 no effect, read-out: Plant response rating, Cupgrass, Woolly
  pest or weed control at 62 g/ha: 100%
[6]; [13]
  Cupgrass, Woolly plant response rating: 65
[6]; [14]
  Cupgrass, Woolly plant response rating: 98
